Measurements reported in ChEMBL document CHEMBL4334440, “Osteoclastogenesis Regulation Metabolites from the Coral-Associated Fungus Pseudallescheria boydii TW-1024-3” (J Nat Prod, 2019).
Active and inactive are the calls of the source. The rule behind the calls is not given here.

How the values were obtained:
BMDM [1] = assay: Cytotoxicity against C57BL/6J mouse Bone marrow macrophage cells assessed as reduction in cell viability at < 10 uM after 48 hrs by CCK-8 assay; format: cell-based
BMDM [2] = assay: Effect on RANKL/M-CSF-induced osteoclastogenesis in C57BL/6J mouse Bone marrow macrophage cells assessed as increase in number of osteoclasts at 1 uM compound for every 2 days and measured after 7 days by TRAP staining based light microscopic method; format: functional, cell-based
BMDM [3] = assay: Effect on RANKL/M-CSF-induced osteoclastogenesis in C57BL/6J mouse Bone marrow macrophage cells assessed as increase in number of osteoclasts at 0.1 uM compound for every 2 days and measured after 7 days by TRAP staining based light microscopic method; format: functional, cell-based
BMDM [4] = assay: Effect on RANKL/M-CSF-induced osteoclastogenesis in C57BL/6J mouse Bone marrow macrophage cells assessed as increase in number of osteoclasts at 0.1 to 1 uM compound for every 2 days and measured after 7 days by TRAP staining based light microscopic method; format: functional, cell-based
BMDM [5] = assay: Effect on RANKL/M-CSF-induced osteoclastogenesis in C57BL/6J mouse Bone marrow macrophage cells assessed as increase in area of osteoclasts at 0.1 uM compound for every 2 days and measured after 7 days by TRAP staining based light microscopic method; format: functional, cell-based
BMDM [6] = assay: Inhibition of RANKL/M-CSF-induced osteoclastogenesis in C57BL/6J mouse Bone marrow macrophage cells assessed as decrease in number of osteoclasts at 0.1 to 1 uM compound for every 2 days and measured after 7 days by TRAP staining based light microscopic method; format: functional, cell-based
BMDM [7] = assay: Inhibition of RANKL/M-CSF-induced osteoclastogenesis in C57BL/6J mouse Bone marrow macrophage cells assessed as decrease in area of osteoclasts at 0.1 to 1 uM compound for every 2 days and measured after 7 days by TRAP staining based light microscopic method; format: functional, cell-based

Row | SMILES | Activity (BMDM [1]) | also measured
1 | CC[C@@H]1O[C@]2(C[C@H](O)C1(C)C)OC(=O)C[C@@H]2NC(C)=O | Non-Toxic | 
2 | CC(C)=CC[C@H]1O[C@]1(C)[C@]1(CO)OC(=O)CC[C@]1(O)CCl | Non-Toxic | Activity (BMDM [2]): Active
3 | CC/C=C\[C@H](O)[C@H](O)C1=C(C)C(=O)[C@]2(O1)C(=O)N[C@@](OC)(C(=O)c1ccccc1)[C@@H]2O [PSEUROTIN A] | Non-Toxic | Activity (BMDM [3]): Active
4 | CO[C@@H]1C(=O)CC[C@]2(CO2)[C@@]1(O)[C@@]1(C)O[C@@H]1CC=C(C)C [OVALICIN] | Non-Toxic | 
5 | CO[C@@H]1[C@H](O)CC[C@]2(O)C[S+]([O-])[C@@H](CC=C(C)C)[C@](C)(O)[C@@]12O (some centres undefined) | Non-Toxic | 
6 | CO[C@@H]1C(=O)CC[C@]2(O)C[S+]([O-])[C@@H](CC=C(C)C)[C@](C)(O)[C@@]12O (some centres undefined) | Non-Toxic | 
7 | CO[C@@H]1C(=O)CC[C@]2(O)CO[C@@H](CC=C(C)C)[C@](C)(O)[C@@]12O | Non-Toxic | Activity (BMDM [4]): Active; Activity (BMDM [5]): Active
8 | C=C1CC[C@@]2(O)C[C@@H]1[C@](C)(O)C(=O)[C@H]2C=C(C)C | Non-Toxic | 
9 | C=C1CC[C@@]2(O)C[C@@H]1[C@@](C)(O)C(=O)[C@H]2C=C(C)C | Non-Toxic | Activity (BMDM [4]): Active; Activity (BMDM [5]): Active
10 | CO[C@@H]1C(=O)CC[C@](O)(CCl)[C@@]1(O)[C@@]1(C)O[C@@H]1CC=C(C)C | Non-Toxic | inhibition (BMDM [6]): Active; inhibition (BMDM [7]): Active
11 | C=C1CCC2(O)CC1C2(C)[C@H](O)CC=C(C)C (some centres undefined) | Non-Toxic | 
